Assay results from US20240043435A1, “TYK-2 INHIBITOR” (BEIGENE, LTD., priority 2020, published 2024).

molecular target: T1, TYK2-JH2 (aa 575-869, in-house) protein (Homo sapiens, UniProt P29597); test: TYK2-JH2 biochemical assay (HTRF probe displacement); type: binding; conditions: Biochemical assay; read-out: TYK2-JH2 IC50
T1 construct: TYK2-JH2 (aa 575-869, in-house) protein; made in house
Protocol: Assay A: TYK2-JH2 Biochemical Assay
Compounds disclosed herein were tested for blocking of TYK2-JH2 (aa 575-869, in-house) protein with its probe in an assay based on Homogeneous Time Resolved Fluorescence. Compound dilution is done according to the following protocol: (1) Prepare 500× compounds solution in DMSO from 500 uM by 5-fold dilution, total 10 doses were included; (2) Prepare 10× compounds solution in an assay buffer containing 20 mM HEPES, pH 7.5, 10 mM MgCl2, 0.005% BSA, 2 mM DTT, 0.015% Brij-35 by transferring 1 μl serial 500× stock solution into 49 μl assay buffer. […] of 0.2 nM recombinant TYK2-JH2 protein was pre-incubated with 1 μl of 10× serial dilution of compounds at room temperature for 0.5 hour. […] The HTRF signals (ex337 nm, em620 nm/665 nm) were read on BMG PHERAstar FS instrument. The inhibition percentage of TYK2 interaction with its probe in presence of increasing concentrations of compounds was calculated based on the ratio of fluorescence at 615 nm to that at 665 nm. The IC50 for each compound was derived from fitting the data to the four-parameter logistic equation by Dotmatics.

T1 sequence (P29597 575-869): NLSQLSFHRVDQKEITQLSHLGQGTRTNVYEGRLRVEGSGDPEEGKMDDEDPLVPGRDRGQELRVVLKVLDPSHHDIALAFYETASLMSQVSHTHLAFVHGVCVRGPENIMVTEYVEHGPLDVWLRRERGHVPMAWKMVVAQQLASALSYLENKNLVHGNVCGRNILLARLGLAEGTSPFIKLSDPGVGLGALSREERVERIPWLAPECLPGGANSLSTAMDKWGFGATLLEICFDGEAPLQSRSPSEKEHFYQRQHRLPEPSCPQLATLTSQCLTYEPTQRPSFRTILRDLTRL

IC50 [nM]	SMILES
0.21	CC(=O)Nc1cc(Nc2cc(C(F)(F)F)cc(S(C)(=O)=O)c2)c(-c2ccc(F)cn2)cn1 [Example F13, N-(5-fluoro-4′-((3-(methylsulfonyl)-5-(trifluoromethyl)phenyl)amino)-[2,3′-bipyridin]-6′-yl)acetamide]
0.13	CC(=O)Nc1cc(Nc2cc(OC(C)C)cc(S(C)(=O)=O)c2)c(-c2ccc(F)cn2)cn1 [Example F14, N-(5-fluoro-4′-((3-isopropoxy-5-(methylsulfonyl)phenyl)amino)-[2,3′-bipyridin]-6′-yl)acetamide]
0.027	COCCOc1cc(Nc2cc(NC(C)=O)ncc2-c2ccc(F)cn2)nc(S(C)(=O)=O)c1 [Example F16, N-(5-fluoro-4′-((4-(2-methoxyethoxy)-6-(methylsulfonyl)pyridin-2-yl)amino)-[2,3′-bipyridin]-6′-yl)acetamide]
0.052	CC(=O)Nc1cc(Nc2cc(OC(C)C)cc(S(C)(=O)=O)n2)c(-c2ccc(F)cn2)cn1 [Example F18, N-(5-fluoro-4′-((4-isopropoxy-6-(methylsulfonyl)pyridin-2-yl)amino)-[2,3′-bipyridin]-6′-yl)acetamide]
0.047	COc1cc(Nc2cc(NC(C)=O)ncc2-c2ccc(C(C)(C)O)cn2)cc(S(C)(=O)=O)c1 [Example H4, N-(5-(2-hydroxypropan-2-yl)-4′-((3-methoxy-5-(methylsulfonyl)phenyl)amino)-[2,3′-bipyridin]-6′-yl)acetamide]
0.12	CC(=O)Nc1cc(Nc2cc(C(F)(F)F)cc(S(C)(=O)=O)c2)c(-c2ccn(C)n2)cn1 [Example J33, N-(5-(1-methyl-1H-pyrazol-3-yl)-4-((3-(methylsulfonyl)-5-(trifluoromethyl)phenyl)amino)pyridin-2-yl)acetamide]
0.13	CC(=O)Nc1cc(Nc2nc(S(C)(=O)=O)ccc2OC(C)C)c(-c2ccn(C)n2)cn1 [Example J49, N-(4-((3-isopropoxy-6-(methylsulfonyl)pyridin-2-yl)amino)-5-(1-methyl-1H-pyrazol-3-yl)pyridin-2-yl)acetamide]
0.099	CCn1ccc(-c2cnc(NC(C)=O)cc2Nc2cc(C#N)cc(S(C)(=O)=O)c2)n1 [Example M10, N-(4-((3-cyano-5-(methylsulfonyl)phenyl)amino)-5-(1-ethyl-1H-pyrazol-3-yl)pyridin-2-yl)acetamide]
0.11	CCn1ccc(-c2cnc(NC(C)=O)cc2Nc2cc(C(F)(F)F)cc(S(C)(=O)=O)c2)n1 [Example M13, N-(5-(1-ethyl-1H-pyrazol-3-yl)-4-((3-(methylsulfonyl)-5-(trifluoromethyl)phenyl)amino)pyridin-2-yl)acetamide]
0.048	CCn1ccc(-c2cnc(NC(C)=O)cc2Nc2cc(OCC3CC3)cc(S(C)(=O)=O)c2)n1 [Example M16, N-(4-((3-(cyclopropylmethoxy)-5-(methylsulfonyl)phenyl)amino)-5-(1-ethyl-1H-pyrazol-3-yl)pyridin-2-yl)acetamide]
0.074	CC(=O)Nc1cc(Nc2cc(C(F)(F)F)cc(S(C)(=O)=O)c2)c(-c2ccn([C@@H]3CCOC3)n2)cn1 [Example M32, (R)-N-(4-((3-(methylsulfonyl)-5-(trifluoromethyl)phenyl)amino)-5-(1-(tetrahydrofuran-3-yl)-1H-pyrazol-3-yl)pyridin-2-yl)acetamide]
0.065	CC(=O)Nc1cc(Nc2cc(OC(C)C)cc(S(C)(=O)=O)n2)c(-c2ccc3nccn3n2)cn1 [Example Q5, N-(5-(imidazo[1,2-b]pyridazin-6-yl)-4-((4-isopropoxy-6-(methylsulfonyl)pyridin-2-yl)amino)pyridin-2-yl)acetamide]
0.033	CC(=O)Nc1cc(Nc2cc(OCC3COCCO3)cc(S(C)(=O)=O)n2)c(-c2ccc3c(n2)OC(C)(C)CO3)cn1 (centres unmarked) [Example Q27, N-(4-((4-((1,4-dioxan-2-yl)methoxy)-6-(methylsulfonyl)pyridin-2-yl)amino)-5-(3,3-dimethyl-2,3-dihydro-[1,4]dioxino[2,3-b]pyridin-6-yl)pyridin-2-yl)acetamide]
0.037	CC(=O)Nc1cc(Nc2cc(C(C)(C)O)cc(S(C)(=O)=O)n2)c(-c2ccc3c(n2)OC(C)(C)CO3)cn1 [Example Q29, N-(5-(3,3-dimethyl-2,3-dihydro-[1,4]dioxino[2,3-b]yridine-6-yl)-4-((4-(2-hydroxypropan-2-yl)-6-(methylsulfonyl)pyridine-2-yl)amino)pyridine-2-yl)acetamide]
0.065	CC(=O)Nc1cc(Nc2cc(C)c(F)c(S(C)(=O)=O)n2)c(-c2ccc3c(n2)OC(C)(C)CO3)cn1 [Example Q30, N-(5-(3,3-dimethyl-2,3-dihydro-[1,4]dioxino[2,3-b]pyridine-6-yl)-4-((5-fluoro-4-methyl-6-(methylsulfonyl)pyridine-2-yl)amino)pyridine-2-yl)acetamide]
0.019	CC(=O)Nc1cc(Nc2cc(N3CCC(C)(O)CC3)cc(S(C)(=O)=O)n2)c(-c2ccc3c(n2)OCC(C)(C)O3)cn1 [Example Q55, N-(5-(2,2-dimethyl-2,3-dihydro-[1,4]dioxino[2,3-b]pyridin-6-yl)-4-((4-(4-hydroxy-4-methylpiperidin-1-yl)-6-(methylsulfonyl)pyridin-2-yl)amino)pyridin-2-yl)acetamide]
0.031	CC(=O)Nc1cc(Nc2cc(N3CC(C)(O)C3)cc(S(C)(=O)=O)n2)c(-c2ccc3c(n2)OCC(C)(C)O3)cn1 [Example Q56, N-(5-(2,2-dimethyl-2,3-dihydro-[1,4]dioxino[2,3-b]pyridin-6-yl)-4-((4-(3-hydroxy-3-methylazetidin-1-yl)-6-(methylsulfonyl)pyridin-2-yl)amino)pyrid-in-2-yl)acetamide]
0.031	CC(=O)Nc1cc(Nc2cc(N3CCC(C)(O)C3)cc(S(C)(=O)=O)n2)c(-c2ccc3c(n2)OCC(C)(C)O3)cn1 (centres unmarked) [Example Q57, N-(5-(2,2-dimethyl-2,3-dihydro-[1,4]dioxino[2,3-b]pyridin-6-yl)-4-((4-(3-hydroxy-3-methylpyrrolidin-1-yl)-6-(methylsulfonyl)pyridin-2-yl)amino)pyridin-2-yl) acetamide]
0.097	CC(=O)Nc1cc(Nc2cc(C3CCOCC3)cc(S(C)(=O)=O)n2)c(-c2ccc3c(n2)OCC(C)(C)O3)nn1 [Example Q58, N-(6-(2,2-dimethyl-2,3-dihydro-[1,4]dioxino[2,3-b]pyridin-6-yl)-5-((6-(methylsulfonyl)-4-(tetrahydro-2H-pyran-4-yl)pyridin-2-yl)amino)pyridazin-3-yl)acetamide]
0.033	CC(=O)Nc1cc(Nc2cc(N3CC[C@@H](OCCO)C3)cc(S(C)(=O)=O)n2)c(-c2ccc3c(n2)OCC(C)(C)O3)cn1 [Example Q59, (R)-N-(5-(2,2-dimethyl-2,3-dihydro-[1,4]dioxino[2,3-b]pyridin-6-yl)-4-((4-(3-(2-hydroxyethoxy)pyrrolidin-1-yl)-6-(methylsulfonyl)pyridin-2-yl)amino)pyridin-2-yl) acetamide]
0.059	CC(=O)Nc1cc(Nc2cc(C3CCN(CC(F)(F)F)CC3)cc(S(C)(=O)=O)n2)c(-c2ccc3c(n2)OCC(C)(C)O3)cn1 [Example Q60, N-(5-(2,2-dimethyl-2,3-dihydro-[1,4]dioxino[2,3-b]pyridin-6-yl)-4-((6-(methylsulfonyl)-4-(1-(2,2,2-trifluoroethyl)piperidin-4-yl)pyridin-2-yl)amino)pyridin-2-yl) acetamide]
0.022	CC(=O)Nc1cc(Nc2cc(N3CC[C@H](OCCO)C3)cc(S(C)(=O)=O)n2)c(-c2ccc3c(n2)OCC(C)(C)O3)cn1 [Example Q61, (S)-N-(5-(2,2-dimethyl-2,3-dihydro-[1,4]dioxino[2,3-b]pyridin-6-yl)-4-((4-(3-(2-hydroxyethoxy)pyrrolidin-1-yl)-6-(methylsulfonyl)pyridin-2-yl)amino)pyridin-2-yl)acetamide]
0.32	CC(=O)Nc1cc(Nc2ccc(C3CCOCC3)c(S(C)(=O)=O)n2)c(-c2ccc3c(n2)OCC(C)(C)O3)cn1 [Example Q79, N-(5-(2,2-dimethyl-2,3-dihydro-[1,4]dioxino[2,3-b]pyridin-6-yl)-4-((6-(methylsulfonyl)-5-(tetrahydro-2H-pyran-4-yl)pyridin-2-yl)amino)pyridin-2-yl)acetamide]
0.031	CC(=O)Nc1cc(Nc2cc(C3CCOC3)cc(S(C)(=O)=O)n2)c(-c2ccc3c(n2)OCC(C)(C)O3)cn1 (centres unmarked) [Example Q86, N-(5-(2,2-dimethyl-2,3-dihydro-[1,4]dioxino[2,3-b]pyridin-6-yl)-4-((6-(methylsulfonyl)-4-(tetrahydrofuran-3-yl)pyridin-2-yl)amino)pyridin-2-yl)acetamde]
0.033	CC(=O)Nc1cc(Nc2cc(-c3c(C)noc3C)cc(S(C)(=O)=O)n2)c(-c2ccc3c(n2)OCC(C)(C)O3)cn1 [Example Q99, N-(5-(2,2-dimethyl-2,3-dihydro-[1,4]dioxino[2,3-b]pyridin-6-yl)-4-((4-(3,5-dimethylisoxazol-4-yl)-6-(methylsulfonyl)pyridin-2-yl)amino)pyridin-2-yl)acetamide]

SMILES	IC50 [nM]
CC(=O)Nc1cc(Nc2cc(O[C@H]3C[C@H](O)C3)cc(S(C)(=O)=O)c2)c(-c2ccc(F)cn2)cn1 [Example F15, N-(5-fluoro-4′-((3-((trans)-3-hydroxycyclobutoxy)-5-(methylsulfonyl)phenyl)amino)-[2,3′-bipyridin]-6′-yl)acetamide]	0.073
